# Measurements as given in patent US5733922A, “Imidazole derivative, pharmaceutically acceptable salt thereof, and anti-ulcer drug including such derivative or salt” (Arax Co., Ltd., priority 1995, dated 1998).
# How the values were obtained:
# [1] = system: hydrochloric acid.ethanol-induced gastric ulcer; assay: Inhibitory effect on hydrochloric acid.ethanol-induced gastric ulcer; type: in vivo; conditions: male SD rats, oral, 30 min before 98% ethanol containing 200 mM hydrochloric acid; for inhibition in vivo at 30 mg/kg: Rattus norvegicus, 1 h, read-out: Inhibitory Percent (ulcer inhibitory percent)
# Protocol: Male SD rats of 7-week age were fasted for 24 hours, with a fast of water beginning in early morning of the day when the experiments were performed. The rats were classified into groups each consisting of five rats, such that all the groups have substantially the same average weight. Before giving hydrochloric acid.ethanol to the rats, the compounds of the Examples indicated in TABLE 2 were orally administered as specimen drugs to the rats, with a dose of 30 mg/kg. Thirty minutes later, 1 mL of 98% ethanol containing 200 mM of hydrochloric acid was orally administered to each specimen rat. One hour later, the specimen rats were sacrificed by ether, and the mucosa of the stomach of each rat was semi-fixed with 2% formalin. The longitudinal length of the damaged area of the gastric mucosa was measured, and the anti-ulcer percent values of the individual specimen drugs were calculated on the basis of the sum of the measured length values of each group of the specimen rats, in the same manner as in Example 68.
# [2] = system: water-immersion restraint stress-induced gastric ulcer; assay: Inhibitory effect on water-immersion restraint stress-induced gastric ulcer; type: in vivo; conditions: male SD rats, oral, 10 mg/kg, 7 h water-immersion restraint stress
# Protocol: Male 7-week SD rats were fasted for 24 hours, with a fast of water beginning in early morning of the day when the experiments were performed. The rats were classified into groups each consisting of five rats, such that all the groups have substantially the same average weight. Before giving a stress to the rats, the compounds of the Examples indicated in TABLE 1 were orally administered as specimen drugs to the rats, with a dose of 10 mg/kg. The rats were then kept in stress cages, and were given a stress by immersing the cages in a water bath kept at a substantially constant temperature of 23°±1° C., such that the water level was at the height of the xiphoid of the rats. Seven hours later, the specimen rats were sacrificed by ether, and the mucosa of the stomach of each rat was semi-fixed with 2% formalin. The longitudinal length of the damaged area of the gastric mucosa was measured. A sum of the measured length values of the rats of each group was calculated as an ulcer index. An anti-ulcer or ulcer inhibitory percent (%) was calculated as {1-(ulcer index of each group of specimen rats)/(ulcer index of non-specimen group)}×100.
# [3] = system: acetic acid-induced gastric ulcer; assay: Healing effect on acetic acid-induced gastric ulcer of rat; type: in vivo; conditions: male Donryu rat, oral, 50 mg/kg two times a day, 10 consecutive days; ulcer surface area
# Protocol: A male Donryu rat of 7-week age was subjected to abdominal incision to expose the stomach, with pentobarbital used as an anesthesia. Using a metal ring having an inside diameter of 10 mm, 200 μL of glacial acetic acid was applied for contact with a serosa-side part of a boundary area between the antrum and the corpus body. The abdomen of the specimen rat subjected to the glacial acetic acid was closed by an operation, and the rat was then fed in a normal way. The compound obtained in Example 16 was orally administered as a specimen drug to the specimen rat two times a day (at 9:00 a.m. and 5:00 p.m.), each time with a dose of 50 mg/kg, beginning on the day following the day on which the glacial acetic acid was applied to the rat. The oral administration continued for 10 consecutive days, with a total of 20 administrations. On the day following the last day of administration, the specimen rat was sacrificed with ether, and the ulcer portion of the rat was fixed with formalin. The surface area of the ulcer portion was measured. The healing percent (%) calculated on the basis of the measured surface area was 28.9%.
# [4] = Single-dose toxicity study; conditions: mouse, in vivo, male ddY mice, oral, observed two weeks, read-out: median lethal dose LD50
# Protocol: Ten male ddY mice (each having a weight of 22-28 g) were used as specimen animal in a cage kept at a substantially constant temperature of 23°±1° C. and under a substantially constant humidity of 55±5%. The compound prepared in Example 39, that is, 2-(2-dimethylaminobenzylthio)-5,5-dimethylimidazolin-4-thione was used as the specimen drug. This compound was suspended in a 2% solution of polysorbate 80, and the suspension was administered to each specimen mouse, with different doses. […] On the basis of the death percent, lethal dose (LD50) which causes a 50% death was obtained as an index indicative of the single dose toxicity. The obtained median lethal dose LD50 (oral administration) was 2000 mg/kg or more. It was thus confirmed that the median lethal dose LD50 (oral administration) of the compound according to the present invention was sufficiently large, indicating a low degree of toxicity or a high degree of safety.
SMILES,inhibition in vivo at 30 mg/kg [1],Inhibitory Percent (ulcer inhibitory percent) [2],other results
"O=C1CN=C(SCc2ccccn2)N1 [Example 1, 2-(2-pyridylmethylthio)imidazolin-4-one]",71.9%,,
"O=C1N=C(SCc2ccccn2)N/C1=C/c1ccccc1 [Example 4, 2-(2-pyridylmethylthio)-5-trans-benzylideneimidazolin-4-one]",,63.3%,
"C=C1NC(SCc2ccccn2)=NC1=O [Example 5, 2-(2-pyridylmethylthio)-5-trans-methylideneimidazolin-4-one]",,23.3%,
"CC1(C)N=C(SCc2ccccn2)NC1=O [Example 8, 2-(2-pyridylmethylthio)-5,5-dimethylimidazolin-4-one]",93%,,
"CC1N=C(SCc2ccccn2)NC1=O (centres unmarked) [Example 9, 2-(2-pyridylmethylthio)-5-methylimidazolin-4-one]",94.9%,,
"CCC1(c2ccccc2)N=C(SCc2ccccn2)NC1=O (centres unmarked) [Example 13, 2-(2-pyridylmethylthio)-5-ethyl-5-phenylimidazolin-4-one]",,46.3%,
"CN(C)c1ccccc1CSC1=NC(C)(C)C(=O)N1 [Example 16, 2-(2-dimethylaminobenzylthio)-5,5-dimethylimidazolin-4-one]",,82.4%,healing percent [3]: 28.9%
"CN(C)c1ccccc1CSC1=NC(=O)/C(=C\c2ccccc2)N1 [Example 18, 2-(2-dimethylaminobenzylthio)-5-trans-benzylideneimidazolin-4-one]",,34.1%,Inhibitory Percent (ulcer inhibitory percent) ([1]; 30 mg/kg): 37.4%
"CC(C)CN(C)c1ccccc1CSC1=NC(C)(C)C(=O)N1 [Example 21, 2-(2-N-isobutyl-N-methylaminobenzylthio)-5,5-dimethylimidazolin-4-one]",99.6%,,
"CC1N=C(SCc2ccccc2N(C)C)NC1=O (centres unmarked) [Example 22, 2-(2-dimethylaminobenzylthio)-5-methylimidazolin-4-one]",,48.9%,
"CN(C)c1ccccc1CSC1=NC(Cc2ccccc2)C(=O)N1 (centres unmarked) [Example 23, 2-(2-dimethylaminobenzylthio)-5-benzylimidazolin-4-one]",83.6%,,
"CCC1(CC)N=C(SCc2ccccc2N(C)C)NC1=O [Example 28, 2-(2-dimethylaminobenzylthio)-5,5-diethylimidazolin-4-one]",,73.8%,
"CCCCC1(CC)N=C(SCc2ccccc2N(C)C)NC1=O (centres unmarked) [Example 29, 2-(2-dimethylaminobenzylthio)-5-butyl-5-ethylimidazolin-4-one]",69.5%,,
"CCC1(C)C(=O)N=C(SCc2ccccc2N(C)C)N1C(C)=O (centres unmarked) [Example 34, 1-N-acetyl-2-(2-dimethylaminobenzylthio)-5-ethyl-5-methyl-2-imidazolin-4-one]",52%,,
"CN1C(=O)C(C)(C)N=C1SCc1ccccc1N(C)C [Example 35, 1-N-methyl-2-(2-dimethylaminobenzylthio)-4,4-dimethyl-2-imidazolin-5-one]",,30.6%,
"CN(C)c1ccccc1CSC1=NC(C)(C)C(=S)N1 [Example 39, 2-(2-dimethylaminobenzylthio)-5,5-dimethylimidazolin-4-thione]",,,LD50 at 336 h [4]: ≥ 2000 mg/kg
"CN(C)c1ccccc1CSC1=NC(C)(c2ccccc2)C(=S)N1 (centres unmarked) [Example 41, 2-(2-dimethylaminobenzylthio)-5-phenyl-5-methylimidazolin-4-thione]",74.5%,,
"CC1(C)N=C(SCc2cccc3cccnc23)NC1=S [Example 44, 2-(8-quinolynylmethylthio)-5,5-dimethylimidazolin-4-thione]",,28.8%,
